Assay results from US12539292B2, “BRM targeting compounds and associated methods of use” (Arvinas Operations, Inc., priority 2018, dated 2026).
Where two headings read alike, the source gives them in different places.

Molecular target: T1, BRM (Homo sapiens, UniProt P51531)
T1 construct: In-Cell Western Screen of BRM Degradation in SW1573 Cells; endogenous in cells; host or cells: SW1573
Assay: In-cell Western screen of BRM degradation in SW1573 cells (Dmax and DC50)
Type: cell-based
In short: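 SW1573 cells were treated with compound overnight (18-20 h; final DMSO 0.1%), then fixed in 4% PFA, permeabilized with Triton X-100 and blocked. BRM was detected by in-cell Western using 800 nm anti-rabbit and 680 nm anti-mouse secondaries, and Dmax and DC50 were derived from the LI-COR Odyssey signal.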

[1] = SW1573, % degraded, when tested at the top concentration of between 0.3 and 10 μM, read-out: BRM Dmax (%)
[2] = BRM degradation, read-out: BRM DC50
[3] = BRM degradation, SW1573 cells, read-out: DC50
[4] = BRM degradation, SW1573 cells, read-out: Dmax (% degraded)
[5] = BRM degradation, SW1573 cells, tested at the top concentration of between 0.3 and 10 μM, read-out: Dmax (%) (% degraded)

T1 sequence (P51531 whole entry): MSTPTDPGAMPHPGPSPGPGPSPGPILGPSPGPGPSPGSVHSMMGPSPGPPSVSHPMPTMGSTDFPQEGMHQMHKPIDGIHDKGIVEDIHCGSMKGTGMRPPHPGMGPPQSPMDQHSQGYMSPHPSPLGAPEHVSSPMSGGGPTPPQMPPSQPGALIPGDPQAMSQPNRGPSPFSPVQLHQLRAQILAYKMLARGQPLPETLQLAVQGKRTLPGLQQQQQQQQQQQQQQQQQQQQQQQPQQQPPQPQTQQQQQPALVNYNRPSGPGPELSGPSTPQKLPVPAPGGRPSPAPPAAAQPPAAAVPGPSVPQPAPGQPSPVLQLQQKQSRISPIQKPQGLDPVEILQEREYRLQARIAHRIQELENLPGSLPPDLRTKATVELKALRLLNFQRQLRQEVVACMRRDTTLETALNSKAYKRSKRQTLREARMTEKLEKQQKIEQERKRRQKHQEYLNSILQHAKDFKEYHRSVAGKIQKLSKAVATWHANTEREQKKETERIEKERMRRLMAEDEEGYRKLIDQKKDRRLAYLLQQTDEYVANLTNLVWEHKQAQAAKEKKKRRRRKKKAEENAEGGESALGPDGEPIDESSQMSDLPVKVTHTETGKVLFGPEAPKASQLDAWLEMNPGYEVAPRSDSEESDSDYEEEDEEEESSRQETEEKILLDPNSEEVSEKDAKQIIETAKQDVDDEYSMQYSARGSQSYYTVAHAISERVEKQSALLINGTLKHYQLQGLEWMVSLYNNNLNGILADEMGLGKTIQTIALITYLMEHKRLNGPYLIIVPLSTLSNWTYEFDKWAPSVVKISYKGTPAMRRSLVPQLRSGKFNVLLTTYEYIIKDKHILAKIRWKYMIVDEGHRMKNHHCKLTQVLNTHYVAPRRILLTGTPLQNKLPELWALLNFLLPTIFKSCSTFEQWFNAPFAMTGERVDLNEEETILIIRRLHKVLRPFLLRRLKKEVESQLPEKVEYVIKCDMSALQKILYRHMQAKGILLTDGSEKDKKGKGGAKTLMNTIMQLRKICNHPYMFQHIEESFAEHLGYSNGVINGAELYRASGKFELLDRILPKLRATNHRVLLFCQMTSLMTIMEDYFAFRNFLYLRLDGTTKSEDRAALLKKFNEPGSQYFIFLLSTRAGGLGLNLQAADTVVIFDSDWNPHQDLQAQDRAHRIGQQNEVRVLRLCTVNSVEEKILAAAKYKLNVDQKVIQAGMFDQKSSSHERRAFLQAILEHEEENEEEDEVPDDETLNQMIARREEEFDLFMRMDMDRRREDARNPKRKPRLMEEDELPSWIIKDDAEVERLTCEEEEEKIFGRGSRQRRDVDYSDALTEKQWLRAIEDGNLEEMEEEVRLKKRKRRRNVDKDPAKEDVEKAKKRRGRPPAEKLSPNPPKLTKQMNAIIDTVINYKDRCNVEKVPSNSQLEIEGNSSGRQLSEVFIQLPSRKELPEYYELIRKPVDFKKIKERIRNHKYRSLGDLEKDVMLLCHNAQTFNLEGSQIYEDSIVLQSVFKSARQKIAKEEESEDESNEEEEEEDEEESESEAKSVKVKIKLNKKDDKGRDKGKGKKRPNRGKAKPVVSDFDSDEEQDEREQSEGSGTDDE

Cc1cc([C@@H](C(=O)N2C[C@H](O)C[C@H]2C(=O)N[C@@H](C)c2ccc(-c3scnc3C)cc2)[C@@H](C)COCCCCOc2cc(N3C4CCC3CN(c3cc(-c5ccccc5O)nnc3N)C4)ccn2)on1 [compound 431, (2S,4R)-1-((2S,3R)-4-(4-((4-(3-(3-amino-6-(2-hydroxyphenyl)pyridazin-4-yl)-3,8-diazabicyclo[3.2.1]octan-8-yl)pyridin-2-yl)oxy)butoxy)-3-methyl-2-(3-methylisoxazol-5-yl)butanoyl)-4-hydroxy-N-((S)-1-(4-(4-methylthiazol-5-yl)phenyl)ethyl)pyrrolidine-2-carboxamide]
Dmax [1]: > 75%
DC50 (degradation of BRM, read-out: BRM DC50): < 2.5 nM

Cc1ncsc1-c1ccc([C@H](C)NC(=O)[C@@H]2C[C@@H](O)CN2C(=O)[C@H](c2cc(OCCN3CCC(O[C@H]4C[C@H](Oc5cc(N6C7CCC6CN(c6cc(-c8ccccc8O)nnc6N)C7)ccn5)C4)CC3)no2)C(C)C)nn1 [compound 503, (2S,4R)-1-((2S)-2-(3-(2-(4-((1r,3S)-3-((4-(3-(3-amino-6-(2-hydroxyphenyl)pyridazin-4-yl)-3,8-diazabicyclo[3.2.1]octan-8-yl)pyridin-2-yl)oxy)cyclobutoxy)piperidin-1-yl)ethoxy)isoxazol-5-yl)-3-methylbutanoyl)-4-hydroxy-N-((S)-1-(6-(4-methylthiazol-5-yl)pyridazin-3-yl)ethyl)pyrrolidine-2-carboxamide]
DC50 [2]: > 30 nM

Cc1ncsc1-c1ccc([C@H](C)NC(=O)[C@@H]2C[C@@H](O)CN2C(=O)[C@@H](c2cc(N3CCC(CN4CCC(O[C@H]5C[C@H](N6CCC(C(C)n7cc(-c8cc(-c9ccccc9O)nnc8N)cn7)CC6)C5)CC4)CC3)no2)C(C)C)cc1 (stereo partly drawn) [compound 648, (2S,4R)-1-((2R)-2-(3-(4-((4-((1r,3r)-3-(4-(1-(4-(3-amino-6-(2-hydroxyphenyl)pyridazin-4-yl)-1H-pyrazol-1-yl)ethyl)piperidin-1-yl)cyclobutoxy)piperidin-1-yl)methyl)piperidin-1-yl)isoxazol-5-yl)-3-methylbutanoyl)-4-hydroxy-N-((S)-1-(4-(4-methylthiazol-5-yl)phenyl)ethyl)pyrrolidine-2-carboxamide]
DC50 [3]: < 2.5 nM
Dmax [4]: > 75%

Cc1ncsc1-c1ccc([C@H](C)NC(=O)[C@@H]2C[C@@H](O)CN2C(=O)[C@@H](c2cc(OCCN3CCC(O[C@H]4C[C@H](OCC#CCn5cc(-c6cc(-c7ccccc7O)nnc6N)cn5)C4)CC3)no2)C(C)C)cc1 [compound 395, (2S,4R)-1-((R)-2-(3-(2-(4-((1r,3R)-3-((4-(4-(3-amino-6-(2-hydroxyphenyl)pyridazin-4-yl)-1H-pyrazol-1-yl)but-2-yn-1-yl)oxy)cyclobutoxy)piperidin-1-yl)ethoxy)isoxazol-5-yl)-3-methylbutanoyl)-4-hydroxy-N-((S)-1-(4-(4-methylthiazol-5-yl)phenyl)ethyl)pyrrolidine-2-carboxamide]
Dmax [1]: > 75%
DC50 (target protein degradation, read-out: BRM DC50): < 2.5 nM

Cc1ncsc1-c1ccc([C@H](CO)NC(=O)[C@@H]2C[C@@H](O)CN2C(=O)[C@H](c2cc(OCCN3CCC(O[C@H]4C[C@H](Oc5cc(N6C7CCC6CN(c6cc(-c8ccccc8O)nnc6N)C7)ccn5)C4)CC3)no2)C(C)C)cc1 [compound 200, (2S,4R)-1-((2S)-2-(3-(2-(4-((1r,3S)-3-((4-(3-(3-amino-6-(2-hydroxyphenyl)pyridazin-4-yl)-3,8-diazabicyclo[3.2.1]octan-8-yl)pyridin-2-yl)oxy)cyclobutoxy)piperidin-1-yl)ethoxy)isoxazol-5-yl)-3-methylbutanoyl)-4-hydroxy-N-((R)-2-hydroxy-1-(4-(4-methylthiazol-5-yl)phenyl)ethyl)pyrrolidine-2-carboxamide]
DC50 [3]: 2.5 to 10 nM
Dmax [5]: > 75%

Cc1ncsc1-c1ccc([C@H](C)NC(=O)[C@@H]2C[C@@H](O)CN2C(=O)[C@H](c2cc(N3CCC4(CCN(C[C@H]5C[C@H](Oc6cc(N7C8CCC7CN(c7cc(-c9ccccc9O)nnc7N)C8)ccn6)C5)CC4)CC3)no2)C(C)C)cc1 [compound 647, (2S,4R)-1-((2S)-2-(3-(9-(((1r,3S)-3-((4-(3-(3-amino-6-(2-hydroxyphenyl)pyridazin-4-yl)-3,8-diazabicyclo[3.2.1]octan-8-yl)pyridin-2-yl)oxy)cyclobutyl)methyl)-3,9-diazaspiro[5.5]undecan-3-yl)isoxazol-5-yl)-3-methylbutanoyl)-4-hydroxy-N-((S)-1-(4-(4-methylthiazol-5-yl)phenyl)ethyl)pyrrolidine-2-carboxamide]
DC50 [3]: > 30 nM

Cc1ncsc1-c1cc(F)c([C@@H](C)NC(=O)[C@@H]2C[C@@H](O)CN2C(=O)[C@@H](c2cc(OCCN3CCC(O[C@H]4C[C@H](Oc5cc(N6C7CCC6CN(c6cc(-c8ccccc8O)nnc6N)C7)ccn5)C4)CC3)no2)C(C)C)cn1 [compound 541, (2S,4R)-1-((2R)-2-(3-(2-(4-((1r,3R)-3-((4-(3-(3-amino-6-(2-hydroxyphenyl)pyridazin-4-yl)-3,8-diazabicyclo[3.2.1]octan-8-yl)pyridin-2-yl)oxy)cyclobutoxy)piperidin-1-yl)ethoxy)isoxazol-5-yl)-3-methylbutanoyl)-N-((R)-1-(4-fluoro-6-(4-methylthiazol-5-yl)pyridin-3-yl)ethyl)-4-hydroxypyrrolidine-2-carboxamide]
DC50 (BRM degradation, SW1573 cells, Table 2D, read-out: *DC50): > 30 nM

Cc1ncsc1-c1ccc(CNC(=O)[C@@H]2C[C@@H](O)CN2C(=O)[C@H](c2cc(OCCOCCOCCn3cc(-c4cc(-c5ccccc5O)nnc4N)cn3)no2)C(C)C)cc1 [compound 14, (2S,4R)-1-[(2S)-2-(3-[2-[2-(2-[4-[3-amino-6-(2-hydroxyphenyl)pyridazin-4-yl]-1H-pyrazol-1-yl]ethoxy)ethoxy]ethoxy]-1,2-oxazol-5-yl)-3-methylbutanoyl]-4-hydroxy-N-[[4-(4-methyl-1,3-thiazol-5-yl)phenyl]methyl]pyrrolidine-2-carboxamide]
Dmax (BRM degradation, SW1573 cells, when tested at the top concentration of between 0.3 and 10 μM, read-out: Dmax (%) (% degraded)): < 50%

Cc1ncoc1-c1ccc([C@H](C)NC(=O)[C@@H]2C[C@@H](O)CN2C(=O)[C@@H](c2cc(OCCN3CCC(O[C@H]4C[C@H](Oc5cc(N6C7CCC6CN(c6cc(-c8ccccc8O)nnc6N)C7)ccn5)C4)CC3)no2)C(C)C)cc1 [compound 213, (2S,4R)-1-((2R)-2-(3-(2-(4-((1r,3R)-3-((4-(3-(3-amino-6-(2-hydroxyphenyl)pyridazin-4-yl)-3,8-diazabicyclo[3.2.1]octan-8-yl)pyridin-2-yl)oxy)cyclobutoxy)piperidin-1-yl)ethoxy)isoxazol-5-yl)-3-methylbutanoyl)-4-hydroxy-N-((S)-1-(4-(4-methyloxazol-5-yl)phenyl)ethyl)pyrrolidine-2-carboxamide]
DC50 [3]: < 2.5 nM
Dmax [5]: > 75%

Cc1ncsc1-c1ccc([C@H](CCC#N)NC(=O)[C@@H]2C[C@@H](O)CN2C(=O)[C@@H](c2cc(N3CCC(CN4CCC(O[C@H]5C[C@H](Oc6cc(N7C8CCC7CN(c7cc(-c9ccccc9O)nnc7N)C8)ccn6)C5)CC4)CC3)no2)C(C)C)cc1 [compound 672, (2S,4R)-1-((2R)-2-(3-(4-((4-((1r,3r)-3-((4-(3-(3-amino-6-(2-hydroxyphenyl)pyridazin-4-yl)-3,8-diazabicyclo[3.2.1]octan-8-yl)pyridin-2-yl)oxy)cyclobutoxy)piperidin-1-yl)methyl)piperidin-1-yl)isoxazol-5-yl)-3-methylbutanoyl)-N-((S)-3-cyano-1-(4-(4-methylthiazol-5-yl)phenyl)propyl)-4-hydroxypyrrolidine-2-carboxamide]
DC50 [3]: < 2.5 nM
Dmax [4]: > 75%

CC(C)[C@@H](C(=O)N1C[C@H](O)C[C@H]1C(=O)N[C@@H](C)c1ccc(-n2ccnc2CO)cc1)c1cc(OCC#Cc2ccc(O[C@H]3C[C@H](Oc4cc(N5C6CCC5CN(c5cc(-c7ccccc7O)nnc5N)C6)ccn4)C3)cn2)no1 [compound 285, (2S,4R)-1-((2R)-2-(3-((3-(5-((1r,3R)-3-((4-(3-(3-amino-6-(2-hydroxyphenyl)pyridazin-4-yl)-3,8-diazabicyclo[3.2.1]octan-8-yl)pyridin-2-yl)oxy)cyclobutoxy)pyridin-2-yl)prop-2-yn-1-yl)oxy)isoxazol-5-yl)-3-methylbutanoyl)-4-hydroxy-N-((S)-1-(4-(2-(hydroxymethyl)-1H-imidazol-1-yl)phenyl)ethyl)pyrrolidine-2-carboxamide]
DC50 [3]: < 2.5 nM
Dmax [5]: > 75%

Cc1ncsc1-c1ccc([C@H](C)NC(=O)[C@@H]2C[C@@H](O)CN2C(=O)[C@@H](c2cc(OCCN3CCC(O[C@H]4C[C@H](Oc5cc(N6C7CCC6CN(c6cc(-c8cc(F)ccc8O)nnc6N)C7)ccn5)C4)CC3)no2)C(C)C)cc1 [compound 502, (2S,4R)-1-((2R)-2-(3-(2-(4-((1r,3R)-3-((4-(3-(3-amino-6-(5-fluoro-2-hydroxyphenyl)pyridazin-4-yl)-3,8-diazabicyclo[3.2.1]octan-8-yl)pyridin-2-yl)oxy)cyclobutoxy)piperidin-1-yl)ethoxy)isoxazol-5-yl)-3-methylbutanoyl)-4-hydroxy-N-((S)-1-(4-(4-methylthiazol-5-yl)phenyl)ethyl)pyrrolidine-2-carboxamide]
DC50 [2]: < 2.5 nM
Dmax [1]: > 75%
